# Test system: L. donovani promastigotes
# Experiment: Cultured L. donovani promastigotes exposed to drugs alone or in two-drug combinations
# Assay type: cell-based
# Conditions: typical serum concentrations (e.g. 5 ug/ml); DMEM culture medium; after 144 hours in culture
row,SMILES,reduction of promastigotes compared to control [%]
1,CCC(C)n1ncn(-c2ccc(N3CCN(c4ccc(OCC5COC(Cn6cncn6)(c6ccc(Cl)cc6Cl)O5)cc4)CC3)cc2)c1=O (centres unmarked) [itraconazole],~50
2,Cc1ncc([N+](=O)[O-])n1CCO [metronidazole],~50

# Source: patent US10561650B2, “Method for treating a protozoal infection” (priority 2013, dated 2020)
